Measured values taken from patent US20150274735A1, “USE OF A TETRASUBSTITUTED PYRAZOLO[4, 3-D]PYRIMIDINE COMPOUND FOR TREATING DIABETIC NEPHROPATHY” (priority 2012, published 2015).
Entries after “also recorded” stand apart in the source; their conditions may differ.

What was measured:
[1] = system: spontaneously hypertensive rats (SHR); assay: Antihypertensive efficacy in conscious SHR, oral dosing, radiotelemetry; type: in vivo, rat; settings: for Effect on mean arterial pressure (MAP): 14-day dosing period
[2] = clinical; settings: male, human, in vivo
Protocol: (§1) Both single and multiple dose clinical studies were conducted with an oral solution or suspension ranging from single doses of 0.3 to 400 mg and multiple doses of 30 to 200 mg.
(§2) For toxicokinetic studies, this method was validated over a concentration range of 10 to 1000 ng/mL for a 50 μL plasma sample. Radiometric methods were used to measure [^14C]

[3] = system: Type II diabetic male patients; assay: Microalbuminuria in Type II diabetic patients (FIG. 1); type: in vivo, human; settings: 50 mg daily for 30 days (n=20), relative to baseline or placebo
[4] = Single-dose toxicity/toxicokinetic study of polymorph forms in rats; type: in vivo; settings: equivalent doses 100 and 300 mg/kg
[5] = Single-dose toxicity/toxicokinetic study of polymorph forms in dogs; type: in vivo; settings: equivalent dose 100 mg/kg
[6] = target: T1, rat PDE5 (Rattus norvegicus, UniProt O54735); assay: PDE5 enzyme (rat platelet) inhibition; type: biochemical; settings: rat platelet-derived enzyme
T1 construct: rat and dog platelet-derived PDE5; from tissue; host or cells: rat platelets

[7] = target: T2, dog platelet-derived PDE5 (Canis lupus familiaris, UniProt O77746); assay: PDE5 enzyme (dog platelet) inhibition; type: biochemical
T2 construct: rat and dog platelet-derived PDE5; from tissue; host or cells: dog platelets

[8] = system: isolated rat aortic rings; assay: Aortic ring relaxation (rat); settings: read-out: Aortic ring vasorelaxation EC50
[9] = target: PDE6 enzyme (human retinal cone) (Homo sapiens, UniProt P51160); assay: PDE6 enzyme (human retinal cone) inhibition; type: biochemical
[10] = target: T3, PDE6 enzyme (human retinal rod) (Homo sapiens, UniProt P16499+P35913); assay: PDE6 enzyme (human retinal rod) inhibition; type: biochemical
T3 construct: against human retinal cone and rod; from tissue; host or cells: human retina (rod)

[11] = target: human PDE11 (Homo sapiens, UniProt Q9HCR9); assay: PDE11 enzyme (human) inhibition; type: biochemical
[12] = system: dog Purkinje fiber; assay: Dog Purkinje fiber assay; settings: up to 10 μM (4.77 μg/mL)
Excerpt: (§3) For in vivo studies, the oral route of exposure was used. Rats given diazepam or frusemide served as positive controls in the locomotor activity and fluid/electrolyte excretion studies, respectively. Dofetilide was used for assay validity or a positive control in the dofetilide and hERG assays, respectively. Positive controls or animals given positive controls were not assessed concurrently in the remaining studies as these studies utilized well-characterized models to evaluate safety parameters.

[13] = system: healthy male volunteers; assay: Human tolerability and safety, single and multiple dose clinical studies
Protocol: as §1

[14] = system: rats; assay: Central nervous system - rat, locomotor activity; type: in vivo; settings: oral, up to 300 mg/kg
Excerpt: (§5) For in vivo studies, the oral route of exposure was used. Rats given diazepam or frusemide served as positive controls in the locomotor activity and fluid/electrolyte excretion studies, respectively. […] Positive controls or animals given positive controls were not assessed concurrently in the remaining studies as these studies utilized well-characterized models to evaluate safety parameters.

[15] = system: rats; assay: Renal - rat, fluid and electrolyte excretion; type: in vivo; settings: oral, 3, 30, 300 mg/kg
Excerpt: as §5

[16] = system: rats; assay: Pulmonary function - rat, respiratory parameters; type: in vivo; settings: oral, up to 300 mg/kg
Excerpt: as §5

[17] = system: dogs; assay: Cardiovascular - conscious dogs, hemodynamic and ECG parameters; type: in vivo, dog
Excerpt: as §3
These cardiovascular effects are consistent with cGMP elevation in vascular smooth muscle, resulting from inhibition of cGMP-specific PDE5.

[18] = Pharmacokinetics in rats; type: in vivo, rat
Protocol: as §2

[19] = Pharmacokinetics in dogs; type: in vivo, dog
Protocol: as §2

[20] = Excretion of total radioactivity in rats; type: in vivo, rat
Protocol: as §2

[21] = Excretion of total radioactivity in dogs; type: in vivo, dog
Protocol: as §2

[22] = Tissue distribution study in rats, radio labeled compound; type: in vivo, rat; settings: radio labeled Example 1
[23] = target: CYP1A2 (Homo sapiens, UniProt P05177); assay: CYP inhibition in human liver microsomes; type: in vitro ADME
[24] = target: T4, CYP2C9 (Homo sapiens, UniProt P11712); assay: CYP inhibition in human liver microsomes; type: in vitro ADME
T4 construct: was determined in human liver microsomes; from tissue; host or cells: human liver microsomes

[25] = target: T5, CYP2C19 (Homo sapiens, UniProt P33261); assay: CYP inhibition in human liver microsomes; type: in vitro ADME
T5 construct: was determined in human liver microsomes; from tissue; host or cells: human liver microsomes

[26] = target: T6, CYP2D6 (Homo sapiens, UniProt P10635); assay: CYP inhibition in human liver microsomes; type: in vitro ADME
T6 construct: was determined in human liver microsomes; from tissue; host or cells: human liver microsomes

[27] = target: CYP3A4 (Homo sapiens, UniProt P08684); assay: CYP inhibition in human liver microsomes; type: in vitro ADME; settings: probe midazolam, testosterone and felodipine
[28] = system: major human cytochrome P450 enzymes; assay: Inhibition of the major human cytochrome P450 enzymes; type: in vitro ADME
[29] = system: Salmonella typhimurium (Strains TA-1535, TA-1537) and Escherichia coli (Strain WP2uvrA); assay: Microbial reverse mutation (mutagenicity); type: cell-based; design: dose or concentration left out as unconfirmed; settings: (±S9)
Protocol: (§4) Study designs and dose selection were consistent with International Conference on Harmonization and Organization for Economic Cooperation and Development guidelines for mutagenicity and clastogenicity assays. All in vitro tests were conducted with and without exogenous metabolic activation using concentrations up to those limited by cytotoxicity or insolubility.

[30] = system: Human Peripheral Lymphocytes; assay: In vitro cytogenetic assay, structural chromosome aberration; type: cell-based; settings: 100, 350, 500 μg/mL (3 h − S9); 100, 200, 350 μg/mL (3 h + S9); 12.5, 50, 100 μg/mL (24 h − S9)
Protocol: as §4

[31] = system: Rat Bone Marrow; assay: Micronucleus assay in rat bone marrow; type: in vivo; settings: 100, 300, 600 mg/kg/day
Protocol: as §4

[32] = system: mice; settings: mouse, in vivo, 14 days
[33] = system: rats; settings: rat, in vivo
[34] = in vitro; settings: rat, plasma
[35] = in vitro; settings: dog, plasma
[36] = in vitro; settings: human, plasma
[37] = in vitro; settings: rabbit, plasma

CYP3A4, sequence (P08684 whole entry): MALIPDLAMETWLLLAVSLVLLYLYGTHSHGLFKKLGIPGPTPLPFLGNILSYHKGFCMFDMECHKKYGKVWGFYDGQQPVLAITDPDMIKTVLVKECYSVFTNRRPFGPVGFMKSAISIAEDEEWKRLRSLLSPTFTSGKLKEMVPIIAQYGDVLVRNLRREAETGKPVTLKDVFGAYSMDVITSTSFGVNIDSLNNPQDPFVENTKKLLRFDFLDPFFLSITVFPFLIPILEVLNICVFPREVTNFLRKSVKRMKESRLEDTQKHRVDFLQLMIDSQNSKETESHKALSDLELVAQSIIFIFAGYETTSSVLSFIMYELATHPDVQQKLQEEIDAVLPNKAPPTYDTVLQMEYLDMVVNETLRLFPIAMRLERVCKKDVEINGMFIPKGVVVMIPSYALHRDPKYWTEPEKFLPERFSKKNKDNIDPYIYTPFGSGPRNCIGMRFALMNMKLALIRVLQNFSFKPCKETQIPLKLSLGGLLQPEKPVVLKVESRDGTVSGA
CYP1A2, sequence (P05177 whole entry): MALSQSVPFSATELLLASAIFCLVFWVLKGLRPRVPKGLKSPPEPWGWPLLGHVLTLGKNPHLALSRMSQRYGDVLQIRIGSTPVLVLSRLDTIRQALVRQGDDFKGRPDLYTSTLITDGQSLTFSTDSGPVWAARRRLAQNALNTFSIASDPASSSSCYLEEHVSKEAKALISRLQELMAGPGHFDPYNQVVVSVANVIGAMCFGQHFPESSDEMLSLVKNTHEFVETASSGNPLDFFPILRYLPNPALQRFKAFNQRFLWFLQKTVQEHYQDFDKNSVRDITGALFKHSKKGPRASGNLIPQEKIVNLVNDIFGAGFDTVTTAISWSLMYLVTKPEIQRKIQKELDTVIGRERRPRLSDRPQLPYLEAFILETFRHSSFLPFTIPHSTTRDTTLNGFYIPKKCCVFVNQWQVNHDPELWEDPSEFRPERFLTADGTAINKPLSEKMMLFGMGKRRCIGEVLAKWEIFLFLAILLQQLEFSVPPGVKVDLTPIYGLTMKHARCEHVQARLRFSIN
PDE6 enzyme (human retinal cone), sequence (P51160 whole entry): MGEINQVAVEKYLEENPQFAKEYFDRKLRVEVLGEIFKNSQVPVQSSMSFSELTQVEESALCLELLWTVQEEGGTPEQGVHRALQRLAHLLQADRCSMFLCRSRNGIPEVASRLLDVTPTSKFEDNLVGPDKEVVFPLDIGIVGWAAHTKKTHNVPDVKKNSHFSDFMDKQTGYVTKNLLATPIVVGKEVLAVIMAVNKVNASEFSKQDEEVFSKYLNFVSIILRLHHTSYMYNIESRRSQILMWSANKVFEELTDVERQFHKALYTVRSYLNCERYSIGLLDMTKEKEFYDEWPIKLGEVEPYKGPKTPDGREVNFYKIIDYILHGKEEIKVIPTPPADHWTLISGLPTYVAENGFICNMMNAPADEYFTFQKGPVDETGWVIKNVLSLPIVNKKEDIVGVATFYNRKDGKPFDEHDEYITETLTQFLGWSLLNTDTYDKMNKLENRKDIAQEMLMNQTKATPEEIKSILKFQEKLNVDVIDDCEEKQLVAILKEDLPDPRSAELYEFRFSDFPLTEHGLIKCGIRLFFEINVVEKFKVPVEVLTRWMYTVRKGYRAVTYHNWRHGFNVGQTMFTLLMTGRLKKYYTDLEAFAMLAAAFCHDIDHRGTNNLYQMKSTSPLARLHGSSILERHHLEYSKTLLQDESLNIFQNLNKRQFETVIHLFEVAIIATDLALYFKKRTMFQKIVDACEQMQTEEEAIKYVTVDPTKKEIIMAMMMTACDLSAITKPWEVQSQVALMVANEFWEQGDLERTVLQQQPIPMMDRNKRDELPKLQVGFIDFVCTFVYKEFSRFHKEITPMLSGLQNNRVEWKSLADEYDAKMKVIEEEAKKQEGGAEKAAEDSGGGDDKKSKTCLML
T3 sequence (P16499 2-857 limits assumed): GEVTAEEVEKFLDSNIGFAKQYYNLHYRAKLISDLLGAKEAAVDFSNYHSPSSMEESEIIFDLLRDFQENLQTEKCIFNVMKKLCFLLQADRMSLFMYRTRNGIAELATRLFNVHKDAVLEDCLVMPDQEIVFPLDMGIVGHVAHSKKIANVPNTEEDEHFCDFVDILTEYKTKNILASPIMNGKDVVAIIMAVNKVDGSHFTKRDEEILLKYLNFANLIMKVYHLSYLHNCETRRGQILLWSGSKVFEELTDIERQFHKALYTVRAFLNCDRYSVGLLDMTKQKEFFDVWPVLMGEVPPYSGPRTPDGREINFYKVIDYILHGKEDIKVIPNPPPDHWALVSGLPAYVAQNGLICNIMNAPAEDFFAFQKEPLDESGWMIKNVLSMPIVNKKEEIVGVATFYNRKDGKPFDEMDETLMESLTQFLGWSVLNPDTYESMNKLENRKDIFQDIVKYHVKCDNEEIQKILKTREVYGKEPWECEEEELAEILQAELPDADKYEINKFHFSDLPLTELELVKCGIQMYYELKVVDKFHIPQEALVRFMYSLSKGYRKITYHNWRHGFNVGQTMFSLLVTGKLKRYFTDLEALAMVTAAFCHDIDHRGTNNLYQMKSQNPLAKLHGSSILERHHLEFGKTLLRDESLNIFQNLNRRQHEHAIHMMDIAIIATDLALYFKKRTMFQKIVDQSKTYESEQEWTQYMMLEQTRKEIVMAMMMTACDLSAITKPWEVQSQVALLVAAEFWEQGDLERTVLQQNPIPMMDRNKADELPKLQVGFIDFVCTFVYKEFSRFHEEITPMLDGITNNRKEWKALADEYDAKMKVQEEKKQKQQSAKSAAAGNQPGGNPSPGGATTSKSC
T3 sequence (P35913 2-851 limits assumed): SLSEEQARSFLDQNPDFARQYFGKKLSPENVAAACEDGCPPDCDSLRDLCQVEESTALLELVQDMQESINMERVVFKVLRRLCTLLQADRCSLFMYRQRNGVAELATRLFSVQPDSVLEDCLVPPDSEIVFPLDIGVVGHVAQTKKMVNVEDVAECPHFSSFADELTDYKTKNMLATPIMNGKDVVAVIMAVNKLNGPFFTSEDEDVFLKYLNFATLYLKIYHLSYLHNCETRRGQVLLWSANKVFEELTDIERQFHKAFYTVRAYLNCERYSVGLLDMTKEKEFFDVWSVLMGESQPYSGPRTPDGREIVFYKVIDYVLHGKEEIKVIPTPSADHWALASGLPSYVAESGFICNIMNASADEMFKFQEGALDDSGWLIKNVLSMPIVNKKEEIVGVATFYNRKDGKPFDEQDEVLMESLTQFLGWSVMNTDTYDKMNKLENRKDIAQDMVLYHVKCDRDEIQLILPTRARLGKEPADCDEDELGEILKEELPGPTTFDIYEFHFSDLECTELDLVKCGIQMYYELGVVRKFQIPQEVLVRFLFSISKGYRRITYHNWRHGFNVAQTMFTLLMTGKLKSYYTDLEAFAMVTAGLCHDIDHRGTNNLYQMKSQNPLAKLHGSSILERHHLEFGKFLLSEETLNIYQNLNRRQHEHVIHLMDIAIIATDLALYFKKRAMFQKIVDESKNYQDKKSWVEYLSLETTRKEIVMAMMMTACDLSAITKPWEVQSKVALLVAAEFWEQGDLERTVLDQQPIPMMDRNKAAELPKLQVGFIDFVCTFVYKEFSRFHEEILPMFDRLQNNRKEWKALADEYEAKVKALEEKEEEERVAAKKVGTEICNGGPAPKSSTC
T4 sequence (P11712 whole entry): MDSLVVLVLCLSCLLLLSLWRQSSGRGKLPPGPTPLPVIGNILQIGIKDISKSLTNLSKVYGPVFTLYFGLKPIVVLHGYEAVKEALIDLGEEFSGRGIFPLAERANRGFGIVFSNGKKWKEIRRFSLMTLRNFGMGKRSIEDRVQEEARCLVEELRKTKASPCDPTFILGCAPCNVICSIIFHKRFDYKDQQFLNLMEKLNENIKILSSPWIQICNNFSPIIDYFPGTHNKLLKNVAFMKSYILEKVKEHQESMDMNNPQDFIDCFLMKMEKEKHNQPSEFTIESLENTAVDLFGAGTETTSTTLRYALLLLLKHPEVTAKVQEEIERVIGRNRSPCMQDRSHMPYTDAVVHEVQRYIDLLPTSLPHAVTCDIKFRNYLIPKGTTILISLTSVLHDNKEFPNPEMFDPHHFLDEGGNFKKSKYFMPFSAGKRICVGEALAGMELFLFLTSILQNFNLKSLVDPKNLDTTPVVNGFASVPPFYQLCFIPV
T6 sequence (P10635 whole entry): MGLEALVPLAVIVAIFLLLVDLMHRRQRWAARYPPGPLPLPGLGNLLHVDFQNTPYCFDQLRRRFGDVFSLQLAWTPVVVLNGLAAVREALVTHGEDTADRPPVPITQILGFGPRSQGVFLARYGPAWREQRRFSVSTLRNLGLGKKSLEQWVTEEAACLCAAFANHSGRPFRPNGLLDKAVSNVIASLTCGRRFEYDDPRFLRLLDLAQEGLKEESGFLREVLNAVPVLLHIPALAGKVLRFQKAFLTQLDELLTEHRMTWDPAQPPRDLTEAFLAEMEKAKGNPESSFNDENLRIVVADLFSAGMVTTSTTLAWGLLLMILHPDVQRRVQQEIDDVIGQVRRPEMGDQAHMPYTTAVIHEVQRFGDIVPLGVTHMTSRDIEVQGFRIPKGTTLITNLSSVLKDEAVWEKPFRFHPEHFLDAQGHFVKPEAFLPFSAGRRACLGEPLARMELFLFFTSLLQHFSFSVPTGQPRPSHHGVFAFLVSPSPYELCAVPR

In the case of `CCOC(=O)[C@H](CCc1ccccc1)N[C@@H](C)C(=O)N1CCC[C@H]1C(=O)O` [enalapril, reference compound], the “Effect on mean arterial pressure (MAP)” value [1] is reported as “significant, sustained reduction in MAP”.

With `CCCc1nn(C)c2c(=O)[nH]c(-c3cc(S(=O)(=O)N4CCN(C)CC4)ccc3OCC)nc12` [Sildenafil, sildenafil] the half-life ([2]; Human Half-life) was 3.7 h, the Microalbuminuria / albuminuria [3] was “reduces albuminuria” and the Microalbuminuria / albuminuria ([3]; listed as sildenafil citrate) was “significantly decreased”.

For `CCOCCn1nc(C(=O)NS(C)(=O)=O)c2nc(N(C)CC)nc(Nc3cc(C)ccn3)c21` [Example 1 (polymorph form C), 1-(2-ethoxyethyl)-5-(ethyl(methyl)amino)-7-((4-methylpyridin-2-yl)amino)-N-(methylsulfonyl)-1H-pyrazolo[4,3-d]pyrimidine-3-carboxamide], the “Systemic exposure, polymorph form C versus form B” value [4] was “no differences in systemic exposure” and the “Systemic exposure, polymorph form C versus form B” value [5] was “no differences in systemic exposure”.

For `CCOCCn1nc(C(=O)NS(C)(=O)=O)c2nc(N(C)CC)nc(Nc3cc(C)ccn3)c21` [Example 1, 1-(2-ethoxyethyl)-5-(ethyl(methyl)amino)-7-((4-methylpyridin-2-yl)amino)-N-(methylsulfonyl)-1H-pyrazolo[4,3-d]pyrimidine-3-carboxamide], the IC50 [6] was 0.00093 µM, the IC50 [7] was 0.00065 µM and the EC50 [8] was 0.0031 µM. For the same molecule, the “Effect on mean arterial pressure (MAP)” value [1] was “significant, sustained reduction in MAP”, the “Effect on MAP in combination” value ([1]; combined with an ACE inhibitor) was “greater MAP lowering effects than the ACE inhibitor alone” and the “Free plasma concentration giving significant MAP reduction, as multiple of rat PDE5 IC50” value ([1]; daily oral dosing) was “approximately 7 fold”. The “ECmax (maximally efficacious concentration)” value ([1]; oral dosing, unbound plasma concentration) was “ECmax = 6.5 nM”, the IC50 [9] was 0.0289 µM and the IC50 [10] was 0.0636 µM. The IC50 [11] was 0.0263 µM, the “Effects in dog Purkinje fiber assay” value [12] was “No relevant effects” and the Cmax ([2]; 30 mg) was 1570 to 1630 ng/mL. The half-life ([2]; Human Half-life) was 11.9 to 15.7 h, the half-life ([2]; Terminal half-life) was 11.9 to 15.7 h and the “Changes in vital signs, ECGs, laboratory safety test results, or physical examination results” value ([13]; healthy male volunteers, any dose) was “No significant changes”. For the same molecule, the “Tolerability of multiple doses” value ([13]; human, in vivo) was “well tolerated”, the “Tolerability of single doses” value ([13]; human, in vivo, po) was “well tolerated” and the “Effects on ECG parameters” value ([13]; humans, single and multiple doses) was “No clinically-relevant effects”. The “Effects on locomotor activity” value [14] was “minor, nondose-related effects consisting of decreased rearing and center rearing”, the “Effect on urine volume and electrolyte excretion” value [15] was “dose-related decrease” and the “Effects on pulmonary function” value [16] was “no adverse effects”. For the same molecule, the “Effects on ECG parameters” value ([17]; dogs) was “not associated with any relevant effects”, the “Effect on blood pressure and left ventricular end-diastolic pressure” value ([17]; dogs, 0.5, 1.5, and 5 mg/kg) was “small, but significant reductions” and the Steady-state distribution volume ([18]; rat) was “lower than total body water”. The bioavailability ([18]; rat, plasma, po, rats, single dose, read-out: Absolute oral bioavailability) was 82%, the “Half-life (in words)” value ([18]; rats) was “long half-life values” and the “Oral bioavailability (in words)” value ([18]; rats) was “high”. The Plasma clearance ([18]; rats, intravenous administration) was “low clearance; also recorded: lower that the liver-blood flow”, the Steady-state distribution volume ([19]; dog) was “lower than total body water” and the bioavailability ([19]; dog, plasma, po, dogs, single dose, read-out: Absolute oral bioavailability) was 77%. The Cmax ([19]; dog, plasma, dogs, 5 mg/kg oral) was 12800 ng/mL, the “Half-life (in words)” value ([19]; dogs) was “long half-life values” and the “Oral bioavailability (in words)” value ([19]; dogs) was “high”. The “Dog Cmax as multiple of human Cmax” value ([19]; dogs 5 mg/kg versus humans 30 mg dose) was ~8 times, the Plasma clearance ([19]; dogs, intravenous administration) was “low clearance; also recorded: lower that the liver-blood flow” and the “Administered dose (total radioactivity) eliminated in feces” value [20] was “greater than 80%”. The “Time within which the majority of the radioactivity was recovered” value [20] was ≤ 48 h, the Total radioactivity recovered [20] was “greater than 92%” and the “Administered dose (total radioactivity) eliminated in feces” value [21] was “greater than 80%”. For the same molecule, the “Time within which the majority of the radioactivity was recovered” value [21] was ≤ 48 h, the Total radioactivity recovered [21] was “greater than 92%” and the Tissue distribution [22] was “systemic distribution was generally in proportion to tissue-blood flow”. The IC50 [23] was > 30 µM, the IC50 [24] was > 30 µM and the IC50 [25] was > 30 µM. The IC50 [26] was > 30 µM, the IC50 [27] was > 30 µM and the “Inhibition of the major human cytochrome P450 enzymes” value [28] was “no significant inhibition”. For the same molecule, the Mutagenicity result [29] was “Negative”, the “Clastogenicity in vitro, structural chromosome aberration result” value [30] was “Negative” and the “Micronucleus assay in rat bone marrow result” value [31] was “Negative”. For the same molecule, the Maximum non-lethal dose [32] was 2000 mg/kg, the “Single dose toxicity findings” value [33] was “No toxicity was observed” and the Maximum non-lethal dose ([33]; 14 days) was 2000 mg/kg. For the same molecule, the fraction unbound [34] was 0.007, the fraction unbound [35] was 0.007 and the fraction unbound [36] was 0.007. The fraction unbound [37] was 0.012.
